PubChem BioAssay AID1963424 (Molecular Pharmacology Branch, DTP, NCI, 2024)
pIC50: −log10 of the molar value.

Tested on: 327498-153-R-J2-PDC complex spheroid growth, % test/control
Assay: Anticancer human tumor 327498-153-R-J2-PDC patient-derived uterine carcinosarcoma cell line growth inhibition [Asc]
Conditions: for pIC50: curve of first compound; for viability, T/C: stronger effect = lower value
Description: Multicellular complex tumor spheroid response to apoptosis pathway targeting inhibitors Alrizomadlin, Pelcitoclax, and Dasminapant in combination with a variety of drugs and investigational agents in selected tumor cell lines
The MDM2 inhibitor alrizomadlin, the Bcl-2/Bcl-xL inhibitor pelcitoclax, and the IAPs inhibitor dasminapant were evaluated both individually and in combination with standard of care and investigational anticancer small molecules within a complex spheroid model of solid tumors. . Complex spheroids include a stromal component modeled by human endothelial cells (HUVEC) and fibroblasts modeled by human mesenchymal stem cells (MSCs). The concentration ranges selected for each drug and investigational agent were based upon clinically achievable concentrations if the clinical Cmax of the agent was known.
Compounds. The drugs and investigational agents: alrizomadlin (APG-115; NSC831270), pelcitoclax (APG-1252; NSC835773), dasminapant (APG-1387;NSC834197), TAK-243 (NSC785004), copanlisib (NSC809693), olaparib (NSC753686), talazoparib (NSC767125), cobimetinib (NSC 768068), eltanexor (KPT-8602, NSC 794443), abemaciclib (NSC 768073), sotorasib (NSC818433), adagrasib (NSC 831453), MRTX-1133 (NSC 836407), Iadademestat (ORY1001, NSC 806812), and RMC-4630 (NSC839698), were obtained from the NCI Developmental Therapeutics Program Chemical Repository. The FDA-approved anticancer drug set is available from the Developmental Therapeutics Program at https://dtp.cancer.gov/organization/dscb/obtaining/available plates.htm. […] The stock solutions were prepared in dimethyl sulfoxide (DMSO, Sigma-Aldrich, St. Louis, MO, cat. D2650) at 800-fold the tested concentration and stored at -70 degrees C prior to their use. All drugs and investigational agents were tested over a range starting from a high concentration at or near the clinical Cmax and decreasing in half-log increments. If the clinical Cmax for an agent had not been determined, the highest concentration tested was 10 microM.
The patient-derived cancer (PDC) cell lines include five colon adenocarcinomas: 186277-243-T-J2-PDC, 616215-338-R-J1-PDC, 439559-082-T-J2-PDC, 463943-066-T-J2-PDC, and 519858-162-T-J1-PDC; three pancreatic carcinomas: 323965-272-R-J2-PDC, 521955-158-R6-J3-PDC, and 521955-158-R2-J5-PDC; two uterine sarcomas: 327498-152-R-J2-PDC and 993429-296-R-J1-PDC; two rhabdomyosarcomas: 755483-174-R-J1-PDC and 772245-204-R-J1-PDC; two soft tissue sarcomas: 126254-015-R-J1-PDC and 494315-158-R-J1-PDC; two malignant fibrous histiocytomas: 317291-083-R-J1-PDC and 596521-263-R-J1-PDC; two breast carcinomas: 171881-019-R-J1-PDC and 885512-296-R-J2-PDC; and one ovarian carcinoma: 6556581-035-R-J-PDC were obtained from the NCI PDMR, (https://pdmr.cancer.gov). The established cell lines HSSY-2 synovial sarcoma (RRID:CVCL 8719), SYO-1 synovial sarcoma (RRID:CVCL_7146), MPNST malignant peripheral neural sheath tumor were obtained from the Sloan Kettering Institute. The following established cell lines were purchased from the American Type Culture Collection (ATCC, Manassas, VA), Sor the received from the NCI repository:, PANC-1 pancreatic carcinoma (CRL-1469, RRID:CVCL_0480), OVCAR-5 ovarian carcinoma (RRID:CVCL_1628), OVCAR-8 ovarian carcinoma (RRID:CVCL_1629), , MCF-7 breast carcinoma (CRL-12584, RRID:CVCL_0031), MDA-MB-231 breast carcinoma (CRL-12532, RRID:CVCL_0062), NCI-H1876 small cell lung carcinoma (CRL-5902, RRID:CVCL_1503), NCI-H510A small cell lung carcinoma (HTB-184, RRID:CVCL_1565), NCI-H1417 (CRL-5869, RRID:CVCL_1469), and NCI-H196 small cell lung carcinoma (CRL-5823, RRID:CVCL_1509). Dr. Peter Houghton (Greehey Children's Cancer Research Institute, University of Texas Health Science Center, San Antonio, TX) provided Rh-18 rhabdomyosarcoma (RRID:CVCL_1659). Pooled donor human umbilical vein endothelial cells (HUVEC, Lonza, cat. CC-2519) and human mesenchymal stem cells (hMSC, Lonza, cat. PT-2501) were purchased from Lonza (Walkersville, MD).
Cell Culture. […]
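Note: spheroids exposed to compound for 7 days after 3 days of growth.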
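Throughout, for viability, T/C: 100% = DMSO vehicle control wells.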

Question: How did the pIC50 (second compound 0.01 µM) turn out when NC(=O)C(=Cn1cnc(-c2cc(C(F)(F)F)cc(C(F)(F)F)c2)n1)c1cncnc1 + CNC(C)C(=O)NC1CN(S(=O)(=O)c2cccc(S(=O)(=O)N3CCC4CCC(C(=O)NC(c5ccccc5)c5ccccc5)N4C(=O)C(NC(=O)C(C)NC)C3)c2)CCC2CCC(C(=O)NC(c3ccccc3)c3ccccc3)N2C1=O was run?
Answer: 7.41

Question: What about the pIC50 (second compound 0.0316 µM) of the same molecule?
Answer: 7.40

Question: And the pIC50 (second compound 0.1 µM)?
Answer: 7.39

Question: What about the pIC50 (second compound 0.316 µM) of the same molecule?
Answer: 7.39

Question: What about the pIC50 (second compound 1 µM) of the same molecule?
Answer: 7.34

Question: What about the viability, T/C (second compound 0.01 µM, first compound 0.000949 µM) of the same molecule?
Answer: 93%

Question: And the viability, T/C (second compound 0.01 µM, first compound 0.003 µM)?
Answer: 111%

Question: What about the viability, T/C (second compound 0.01 µM, first compound 0.00949 µM) of the same molecule?
Answer: 84.5%

Question: What about the viability, T/C (second compound 0.01 µM, first compound 0.03 µM) of the same molecule?
Answer: 63%

Question: What about the viability, T/C (second compound 0.01 µM, first compound 0.0949 µM) of the same molecule?
Answer: 12.1%

Question: What about the viability, T/C (second compound 0.01 µM, first compound 0.3 µM) of the same molecule?
Answer: 1.73%

Question: And the viability, T/C (second compound 0.0316 µM, first compound 0.000949 µM)?
Answer: 90.1%

Question: And the viability, T/C (second compound 0.0316 µM, first compound 0.003 µM)?
Answer: 91.5%

Question: What about the viability, T/C (second compound 0.0316 µM, first compound 0.00949 µM) of the same molecule?
Answer: 88%

Question: And the viability, T/C (second compound 0.0316 µM, first compound 0.03 µM)?
Answer: 63.8%

Question: What about the viability, T/C (second compound 0.0316 µM, first compound 0.0949 µM) of the same molecule?
Answer: 9.05%

Question: And the viability, T/C (second compound 0.0316 µM, first compound 0.3 µM)?
Answer: 1.71%

Question: And the viability, T/C (second compound 0.1 µM, first compound 0.000949 µM)?
Answer: 92.8%

Question: And the viability, T/C (second compound 0.1 µM, first compound 0.003 µM)?
Answer: 94.4%

Question: What about the viability, T/C (second compound 0.1 µM, first compound 0.00949 µM) of the same molecule?
Answer: 85.8%

Question: And the viability, T/C (second compound 0.1 µM, first compound 0.03 µM)?
Answer: 65.4%

Question: And the viability, T/C (second compound 0.1 µM, first compound 0.0949 µM)?
Answer: 9.53%

Question: And the viability, T/C (second compound 0.1 µM, first compound 0.3 µM)?
Answer: 1.32%

Question: And the viability, T/C (second compound 0.316 µM, first compound 0.000949 µM)?
Answer: 91.9%

Question: And the viability, T/C (second compound 0.316 µM, first compound 0.003 µM)?
Answer: 91.8%

Question: What about the viability, T/C (second compound 0.316 µM, first compound 0.00949 µM) of the same molecule?
Answer: 88.4%

Question: And the viability, T/C (second compound 0.316 µM, first compound 0.03 µM)?
Answer: 65%

Question: And the viability, T/C (second compound 0.316 µM, first compound 0.0949 µM)?
Answer: 9.52%

Question: What about the viability, T/C (second compound 0.316 µM, first compound 0.3 µM) of the same molecule?
Answer: 1.32%

Question: What about the viability, T/C (second compound 1 µM, first compound 0.000949 µM) of the same molecule?
Answer: 102%

Question: And the viability, T/C (second compound 1 µM, first compound 0.003 µM)?
Answer: 92.1%

Question: What about the viability, T/C (second compound 1 µM, first compound 0.00949 µM) of the same molecule?
Answer: 82.2%

Question: What about the viability, T/C (second compound 1 µM, first compound 0.03 µM) of the same molecule?
Answer: 75.2%

Question: And the viability, T/C (second compound 1 µM, first compound 0.0949 µM)?
Answer: 7.78%

Question: What about the viability, T/C (second compound 1 µM, first compound 0.3 µM) of the same molecule?
Answer: 1.13%
